Laboratory results: patent US20050009770A1, “Use of excipients to increase DNA uptake by swine muscle cells” (priority 2002, published 2005)

Test system: swine muscle cells
Assay: Excipient testing in pigs: X-gal staining of muscle after IM injection of β galactosidase plasmid DNA with excipient
Type: in vivo
Settings: excipient combined with plasmid DNA containing a β galactosidase gene; conclusion
Method: Solutions of sucrose (3-7%), DMSO (18-22%), Tween 80 (0.03-0.07%), or E. coli recombinant modified labile toxin (rmLT) (23-27 ug/dose) can be formulated at the desired final concentration in 150 mM sodium phosphate, pH 7.2, containing 1 mg/ml of the plasmid DNA of interest. Solutions can be assembled by dissolving the excipients and plasmid DNA in 150 mM sodium phosphate, pH 7.2 at the desired concentration. Alternatively, the preparations can be prepared as sub-solution, at twice their final concentration in 150 mM sodium phosphate, pH 7.2, and then mixed in equal volumes immediately prior to administration. The SEPA-DNA solution is prepared by adding 1 part of the respective DNA solution, at 5 mg/ml, to 4 parts SEPA.
Table 1 contains the scoring results of X-gal staining in swine muscles 5 days following injection of the various DNA and excipients solutions.
Each pig received a total of 6 injections. All injections administered in the longissimus dorsi muscle (3/side). Injections were approximately 2.5″ lateral to the spine. On each side of the pig, one site was located at approximately the last rib, and the two others were at approximately 6″ and 12″ cranial (towards the nose) from the last rib. Hair was clipped in an area approximately 1″ square to aid identification of injection sites. Injections were made in the center of each shaved area, at approximately 90′ angle to the skin surface. The pigs were restrained briefly in a self-locking head catch chute and the test article administered IM using a 1.5″ long 18 gauge needle attached to a 3 ml syringe. Each test article (treatment) was administered in a total of 3 injection sites (each on a different pig). The total volume of each injection was 1 ml.
Pigs were euthanized 5 days following administration of the respective DNA and excipient solution. A section of tissue approximately 1″ cubed, surrounding the point of entry of the needle, was excised. […] The amount of staining was determined by visual observation using a subjective scale from “No Staining” through a gradation to “Yes++++”. […]

For `OC[C@H]1O[C@@](CO)(O[C@H]2O[C@H](CO)[C@@H](O)[C@H](O)[C@H]2O)[C@@H](O)[C@@H]1O` [5% Sucrose, sucrose], which “DNA uptake by swine muscle cells, as indicated by tissue staining” value (shortened to “DNA uptake by swine muscle cells”) is on record?
The value was “enhanced DNA uptake”.

With `C[S+](C)[O-]` [20% Dimethyl sulfoxide, dimethyl sulfoxide] as the compound, how does the “DNA uptake by swine muscle cells” value read?
Its value is “enhanced DNA uptake”.

For `CCCCCCCCCC1OCCO1` [SEPA solution, 2-n-Nonyl-1,3-dioxolane], which “DNA uptake by swine muscle cells” value is on record?
Its value is “enhanced DNA uptake”.
